Assay results published in article PMC10054553, “Development of the First ^18F-Labeled Radiohybrid-Based Minigastrin Derivative with High Target Affinity and Tumor Accumulation by Substitution of the Chelating Moiety” (Pharmaceutics, 2023).

Assay: Lipophilicity (logD7.4), n-octanol/PBS pH 7.4
Type: physicochemical
Method: Cell-based experiments and determination of lipophilicity (logD7.4) were performed as previously published. A detailed description of the in vitro experiments is provided in the Supplementary Materials.
Cell Culture. CCK-2R-expressing rat pancreatic cancer cells AR42J (CLS GmbH, Eppelheim, Germany) were cultivated in monolayers in CELLSTAR® cell culture flasks acquired from Greiner Bio-One GmbH (Frickenhausen, Germany) at 37°C in a humidified atmosphere (5% CO2) using a HERAcell 150i-Incubator (Thermo Fisher Scientific Inc., Waltham, United States). The nutrient medium RPMI 1640 medium, supplemented with 5 mM L-Gln 5 mL non-essential amino acids (100×) and 10% FCS, was used. Furthermore, a Dulbecco’s PBS solution with 0.1% EDTA (v/v) was applied to detach the cells for cell passaging. The detached cells were counted using a Neubauer hemocytometer (Paul Marienfeld, Lauda-Königshofen, Germany). In addition, all operations under sterile conditions were accomplished using a MSC-Advantage safety workbench (Thermo Fisher Scientific Inc., Waltham, United States).
Determination of IC50. AR42J cells (2.0 × 10^5 cells/well) were seeded into 24-well plates 24 ± 2 h prior to testing using 1 mL of nutrient medium (RPMI 1640, 5 mM L-Gln, 5 mL non-essential amino acids (100×), 10% FCS). Cells were incubated at 37°C in a humidified atmosphere (5% CO2).
After the removal of the medium, each well was washed with 500 μL PBS. For the cell-based assay, 200 μL of the nutrient medium (+5% BSA), [ 177Lu]Lu-DOTA-PP-F11N (25 μL, 0.3 pmol) as a radiolabeled reference and 25 μL of the peptide of interest in increasing concentrations (10 −10 to 10−4 M) were added to the cells in triplicate. Thereafter, the assay was incubated for 3 h at 37°C and the supernatant was collected. The cells were washed with 300 μL PBS and the collected supernatant fractions were unified.
After lysis of the cells with NaOH (300 μL, 1 N) for 15 min, the respective wells were washed with NaOH (300 μ L, 1 N) and both fractions were unified. The radioactivity of both the supernatant and the lysed fractions were quantified using a γ-counter (PerkinElmer Inc., Waltham, United States). The obtained data were evaluated via the GraphPad PRISM software (GraphPad Software Inc., La Jolla, United States), which calculates the half-maximal inhibitory concentration (IC50) of the peptides.
Internalization Studies. For the determination of the internalization kinetics of the various peptides, AR42J cells (3.0 × 10^5 cells/well) were seeded into polylysine-coated 24-well plates, adding 1 mL of nutrient medium. Afterwards, the cells were incubated for 24 ± 2 h at 37°C in a humidified atmosphere […]
On the day of the experiment, the medium was removed, and each well was washed with nutrient medium (300 μL). Afterwards 200 μL of nutrient medium, 25 μL of the 177Lu-labeled peptide (0.3 pmol, n = 6) and either 25 μL of nutrient medium for internalization studies ( n = 3) or 25 μL of [natLu]Lu-DOTA-PP-F11N (10 μmol) for competition studies ( n = 3) were added. Thereafter, the assay was incubated for various time points (1, 2, 4 and 6 h) at 37°C in a humidified atmosphere (5% CO2). After incubation, the cells were put on ice for at least 1 min to stop internalization kinetics and the supernatant was collected. Then, the cells were washed with an ice-cold nutrient medium (300 μL) and both fractions were unified. […] The radioactivity of the supernatant, the acid wash and the lysed fractions were quantified using a γ-counter. […]

Compound	logD7.4 (n-octanol/PBS pH 7.4)	logD (pH 7.4, n-octanol/PBS pH 7.4, read-out: logD7.4)
CCCC[C@H](NC(=O)[C@H](Cc1c[nH]c2ccccc12)NC(=O)CNC(=O)[C@H](Cc1ccc(O)cc1)NC(=O)[C@H](C)NC(=O)CC[C@@H](NC(=O)CC[C@@H](NC(=O)CC[C@@H](NC(=O)CC[C@@H](NC(=O)CC[C@@H](NC(=O)CC[C@@H](NC(=O)CC[C@@H](NC(=O)CC[C@@H](NC(=O)[C@@H](CNC(=O)c1ccc([Si](F)(C(C)(C)C)C(C)(C)C)cc1)NC(=O)CN1CCN(CC(=O)O)CCN(CC(=O)O)CCN(CC(=O)O)CC1)C(=O)O)C(=O)O)C(=O)O)C(=O)O)C(=O)O)C(=O)O)C(=O)O)C(=O)O)C(=O)N[C@@H](CC(=O)O)C(=O)N[C@@H](Cc1ccccc1)C(N)=O [[^19F]F-[^177Lu]Lu-DOTA-rhCCK-18] [metal not drawn]	−2.69 ± 0.06	–
CCCC[C@H](NC(=O)[C@H](Cc1c[nH]c2ccccc12)NC(=O)CNC(=O)[C@H](Cc1ccc(O)cc1)NC(=O)[C@H](C)NC(=O)CC[C@@H](NC(=O)CC[C@@H](NC(=O)CC[C@@H](NC(=O)CC[C@@H](NC(=O)CC[C@@H](NC(=O)CC[C@@H](NC(=O)[C@@H](CNC(=O)c1ccc([Si](F)(C(C)(C)C)C(C)(C)C)cc1)NC(=O)CN1CCN(CC(=O)O)CCN(CC(=O)O)CCN(CC(=O)O)CC1)C(=O)O)C(=O)O)C(=O)O)C(=O)O)C(=O)O)C(=O)O)C(=O)N[C@@H](CC(=O)O)C(=O)N[C@@H](Cc1ccccc1)C(N)=O [[^177Lu]Lu-DOTA-rhCCK-16, metal not drawn]	–	-2.7 ± 0.09
